Experiments:
D(2) dopamine receptor [1] = target: T1, D(2) dopamine receptor (Homo sapiens, UniProt P14416); assay: Antagonist activity against human D2 receptor expressed in CHO cells assessed as dopamine EC50 at 1 uM by [35S]GTPgammaS binding assay (Rvb = 225 +/- 45 nM)
D(2) dopamine receptor [2] = target: T1, D(2) dopamine receptor; assay: Antagonist activity against human D2 receptor expressed in CHO cells assessed as dopamine EC50 at 200 nM by [35S]GTPgammaS binding assay (Rvb = 225 +/- 45 nM)

T1 sequence (P14416 whole entry): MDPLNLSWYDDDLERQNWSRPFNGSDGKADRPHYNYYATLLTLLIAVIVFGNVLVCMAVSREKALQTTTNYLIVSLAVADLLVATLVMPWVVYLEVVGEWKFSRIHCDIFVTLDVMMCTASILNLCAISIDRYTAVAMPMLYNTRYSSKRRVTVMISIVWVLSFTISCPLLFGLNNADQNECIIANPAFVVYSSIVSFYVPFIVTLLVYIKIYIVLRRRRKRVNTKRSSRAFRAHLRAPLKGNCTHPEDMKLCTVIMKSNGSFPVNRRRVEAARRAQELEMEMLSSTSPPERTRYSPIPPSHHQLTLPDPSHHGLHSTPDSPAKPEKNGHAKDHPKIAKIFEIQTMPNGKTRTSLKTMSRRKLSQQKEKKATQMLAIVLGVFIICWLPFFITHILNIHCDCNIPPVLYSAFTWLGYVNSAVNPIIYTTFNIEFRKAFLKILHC

CCCN1CCC[C@@H](c2cccc(O)c2)C1 [Preclamol]
EC50 (D(2) dopamine receptor [1]): 844 nM | EC50 (D(2) dopamine receptor [2]): 376 nM

Source: BindingDB's records for doi:10.1021/acs.jmedchem.5b01031 (Wayne State University, 2015)
